Reference: patent publication US20140296143A1, “Angiotensin-(1-7) As A Chemoprevention Agent” (Wake Forest Innovations, priority 2008, published 2014)
Several values for one entry are separate records, joined by “and”; a condition that tells them apart may be missing. Equal values may be shown once. Read-outs that look alike come from different tables or passages of the source.

Assays:
[1] = breast cancer patients, 30 minutes following subcutaneous injection, n=3, Rodgers 2005, cited from earlier work
AT2 angiotensin receptor = target: T1, AT2 angiotensin receptor (Homo sapiens, UniProt P50052); conditions: cited from earlier work
T1 sequence (P50052 1-363): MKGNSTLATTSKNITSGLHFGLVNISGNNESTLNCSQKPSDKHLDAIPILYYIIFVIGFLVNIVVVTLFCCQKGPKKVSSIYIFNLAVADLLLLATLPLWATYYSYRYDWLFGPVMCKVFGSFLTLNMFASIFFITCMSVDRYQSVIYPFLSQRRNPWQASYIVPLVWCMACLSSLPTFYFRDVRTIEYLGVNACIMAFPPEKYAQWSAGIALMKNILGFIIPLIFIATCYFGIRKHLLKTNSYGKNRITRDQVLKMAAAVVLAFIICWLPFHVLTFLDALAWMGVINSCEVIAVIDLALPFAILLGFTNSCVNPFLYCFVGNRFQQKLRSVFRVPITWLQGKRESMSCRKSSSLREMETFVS

[2] = system: A549 human lung cancer cells; experiment: Hoechst 33342 staining for morphological features of apoptosis; type: cell-based; conditions: 100 nM, 4 h
Description: In one experiment, A549 human lung cancer cells were stained with Hoechst 33342 to visualize the morphological changes associated with apoptosis.

[3] = system: lung tumors in Ki-ras^G12C mice; experiment: Ki-ras^G12C bi-transgenic mouse model of lung tumorigenesis, DOX-induced; type: in vivo
Method: Tumors were fixed with 4% paraformaldehyde for 24 h and incubated in 70% ethanol for 48 h prior to embedding in paraffin. The embedded tumors were cut into five micron thick sections and stained with hematoxylin and eosin to determine morphology. Cell proliferation in the tumors was detected by immunostaining with an antibody to Ki67 (1:25; Abcam, Cambridge, Mass.) using the labeled streptavidin biotin method, as described previously (Floyd et al., Carcinogenesis, 2005, 26:2196-2206). Stained sections were visualized and photographed with a video image analysis system (Scion, Inc., Frederick, Md.) and public domain software (NIH Image v1.60). A computer-assisted counting technique with a grid filter to select cells was used to quantify the immunohistochemical staining of Ki67 (Stute et al., Fertil. Steril., 2004, 82:1160-1170). The positive cells were expressed as a percentage of the total cell number examined (100 cells sampled from each tissue site within each lung tumor section).
A novel model for the induction of lung tumors in mice, a bi-transgenic mouse that expresses the mutant human Ki-ras^G12C allele in a tet-inducible and lung-specific manner was generously supplied by Dr. Mark Miller of the Department of Cancer Biology, Wake Forest University School of Medicine, for use in these experiments.
For these experiments, sixteen (16) bi-transgenic mice were produced by crossing mono-transgenic Ki-ras^G12C mice with Clara cell secretory protein-reverse tet trans-activator (CCSP-rtTA) transgenic mice. The presence of both transgenes was verified by genotyping.

ERK2 = conditions: SK-LU-1, 10 nM pretreatment; Gallagher et al., 2004; cited from earlier work
[4] = system: ZR-75-1 breast cancer cell line tumors; experiment: ZR-75-1 breast cancer xenograft in athymic mice, intravenous infusion; type: in vivo, mouse; conditions: 24 μg/kg/hr infusion, 28 days; saline tumors doubled
Method: Male or female athymic mice (15-20 g, 2-4 weeks of age, Charles River Laboratory, Wilmington, Mass.) were housed in cages with HEPA-filtered air (12-hour light/dark cycle) and ad libitum access to food and autoclaved water. All procedures complied with the policies of the Wake Forest University Animal Care and Use Committee. Mice were inoculated subcutaneously in the lower left flank with approximately 1.9×10^6 A549 lung cancer cells or ZR-75-1 breast cancer cells suspended in 200 μL of cold Matrigel (BD Biosciences, Bedford, Mass.). […] The mice were anesthetized by inhalation with 1.5% isoflurane. […] The minipumps also contained heparin (25 U/mL) to maintain patency of the catheter. On day 28 of the infusion, the animals were anesthetized with halothane and sacrificed by decapitation. Alternatively, the mice received daily subcutaneous injections of Ang-(1-7) in saline or saline alone.
Tumor volumes were measured by caliper two times per week and calculated using the formula for a semiellipsoid. After 40 days, the mice had tumors approximately 175 mm^3 in size and were randomized for treatment.

SK-LU-1 cells = experiment: Gene array hybridization (Human Cancer 1.2 Atlas cDNA Expression Array) in SK-LU-1 cells; type: cell-based; conditions: SK-LU-1, 1% serum, 100 nM
Method: Cells were incubated for 2 or 8 h, and total RNA was isolated using the Atlas Pure Total RNA Labeling System (Clontech Laboratories, Inc). The RNA concentration was quantified by UV spectroscopy and any degradation was assessed by ethidium bromide staining intensity of 28S and 18S ribosomal RNA following agarose gel electrophoresis. RNA isolated from seven different cell passages was pooled prior to gene array analysis to account for individual variability in gene regulation. Radiolabeled cDNA, prepared from the pooled RNAs using the Atlas system, was incubated with DNase to degrade any residual DNA and then hybridized to the Human Cancer 1.2 Atlas cDNA Expression Array (Clonetech Laboratories, Inc). This gene array set contains 1,176 characterized human cDNAs on positively-charged nylon membranes.

caspase-8 = experiment: Caspase-8 activity in A549 cell lysates, fluorometric assay; type: cell-based, human; conditions: A549 cells, 100 nM; maximal at 16 and 24 h
Method: The specificity of the activity of each caspase substrate was also verified by assays in the presence of specific inhibitors. […] Caspase-3 activity was measured by a fluorometric assay using Ac-DEVD-AFC (Acetylated-Asp-Glu-Val-Asp-7-amino-4-trifluoromethylcoumarin) (SEQ ID NO: 9) as a specific substrate for caspase-3 and Z-DEVD-CHO as a selective caspase-3 inhibitor. Caspase-8 activity was measured by a fluorometric assay using Ac-LETD-AFC (Acetylated-Leu-Glu-Thr-Asp-7-amino-4-trifluoromethylcoumarin) (SEQ ID NO: 10) as a specific substrate and Z-LETD-CHO as a selective caspase-8 inhibitor. The data are presented as relative fluorescence units (RFU).

EA.hy.926 cells = experiment: Tube formation of endothelial cells in Matrigel; type: cell-based, human; conditions: over the range of 0.5 to 100 nM
Method: These cells are a transformed human endothelial cell line derived from umbilical vein endothelial cells. They retain their endothelial phenotype and were previously used to study angiogenesis.
After a 16 h incubation period to allow tube formation, cultures were photographed and branch points were counted, to quantify tube formation.

SMILES: CC[C@H](C)[C@H](NC(=O)[C@H](Cc1ccc(O)cc1)NC(=O)[C@@H](NC(=O)[C@H](CCCNC(=N)N)NC(=O)[C@@H](N)CC(=O)O)C(C)C)C(=O)N[C@@H](Cc1c[nH]cn1)C(=O)N1CCC[C@H]1C(=O)O [Ang-(1-7), Asp-Arg-Val-Tyr-Ile-His-Pro]
- plasma Ang-(1-7) ([1]; 100 μg/kg/day): 3209.5 pg/mL and 3.6 nM
- plasma Ang-(1-7) [1]: 49.43 pg/mL and 0.055 nM
- IC50 at the AT2 angiotensin receptor (AT2 angiotensin receptor; Tallant et al., 1999): micromolar range
- competition at the AT2 receptor (AT2 angiotensin receptor; literature): poor competitor
- morphological changes (Hoechst 33342) [2]: typical morphological changes associated with stimulation of apoptosis
- Ki67 immunoreactivity in hyperplastic lesion ([3]; 24 μg/kg/h infusion, 84 days, saline: abundant, robust staining): little immunoreactivity
- adverse reactions or gross pathological abnormalities ([3]; 24 μg/kg/h intravenous infusion, 84 days): No adverse reactions or gross pathological abnormalities
- lung tumor multiplicity ([3]; 24 μg/kg/h intravenous infusion, 84 days, n=8, saline 12.75±1.04): 6.4±0.87 tumors/mice
- CD34 positive cells in pulmonary lesions ([3]; Ang-(1-7) infusion, n=7, saline 63.5±6.1 (n=8), percentage of total cell number per FIG. 16 legend): 37.7±5.2
- proportion of COX-2 positive cells in hyperplasias and adenomas ([3]; Ang-(1-7) infusion, n=7, saline 68.8±10.2% (n=8)): 29.3±8.2%
- reduction in the development of new tumors ([3]; Ki-ras/CCSP-rtTA bi-transgenic mice, FIG. 2): about 50%
- reduction in the proportion of COX-2 positive cells ([3]; versus saline): ~50%
- reduction in CD34 positive cells ([3]; versus saline-treated animals): ~40%
- reduction of serum-stimulated phosphorylation of ERK2 (ERK2): 68%
- reduction in tumor volume compared to tumor size prior to treatment [4]: ~40%
- expression of MEK5, ERK1, p21/K-ras 2B (SK-LU-1 cells): reduced
- expression of p16^INK4a, menin, BAD, BAK, apoptotic protease activating factor 1 (SK-LU-1 cells): upregulated
- time-dependent increase in caspase-8 activity (caspase-8): about 2 fold
- inhibition of tube formation (EA.hy.926 cells): dose-dependent inhibition
